# Values of other authors, collected in patent US8618066B1 (priority 2003, dated 2013).
# “Also recorded” adds a separate entry of the source.
# Test system: Gram+ & Gram− bacteria, fungi, virus, mammalian/cancer cells
# Details: cited from earlier work
row,Substance,Activity
1,"MBP-1: peptide, source Maize (RSGRGECRRQCLRRHEGQPWETQECMRRCRRRG; Zea mays; MBP-1)","Gram+ & Gram−, Fungi"
2,"HNP-2 Defensin: peptide, source Human (CYCRIPACIAGERRYGTCIYQGRLWAFCC; HNP-2 Defensin; listed as Homo sapiens)","Gram+ & Gram−, Virus, Fungi"
3,Ginkbilobin: source Ginkgo (ANTAFVSSAHNTQKIPAGAPFNRNLRAMLADLRQNAAFAG; Ginkbilobin; listed as Ginkgo biloba),"Gram+ & Gram−, Virus, Fungi"
4,"AFP1: peptide, source Turnip (QKLCERPSGTWSGVCGNNNACKNQCIN; AFP1; listed as Brassica rapa)",Fungi
5,"SEQ ID No. 187: synthetic antifungal peptide, Table 1 (MPSNTQTSNSSMGVNGYSYCVVM; listed as Cryphonectria parasitica)",Fungi
6,"Peptide PGQ: peptide, source African clawed frog (GVLSNVIGYLKKLGTGALNAVLKQ; Peptide PGQ; listed as Xenopus laevis)","Gram+ & Gram−, Fungi"
7,"Cecropin B: peptide, source Chinese oak silk moth (KWKIFKKIEKVGRNIRNGIIKAGPAVAVLGEAKAL; Cecropin B; listed as Antheraea pernyi)","Gram+ & Gram−, Fungi"
8,"HNP-4 Defensin: peptide, source Human (VCSCRLVFCRRTELRVGNCLIGGVSFTYCCTRV; HNP-4 Defensin; listed as Homo sapiens)","Gram+ & Gram−, Fungi"
9,FRLHF [SEQ ID No. 199],"Gram+ & Gram−, Fungi"
10,"Seminalplasmin: peptide, source Bovine (SDEKASPDKHHRFSLSRYAKLANRLANPKLLETFLSKWIGDRGNRSVK; Seminalplasmin; listed as Bos taurus)","Gram+ & Gram−, Fungi,; also recorded: Mammalian cells"
11,"SEQ ID No. 185: synthetic antifungal peptide, Table 1 (MSPSTKNIPAPVAGARAGPIHYCVIM; listed as Magnaporthe grisea)",Fungi
12,"Penaeidin-1: peptide, source Penoeid shrimp (YRGGYTGPIPRPPPIGRPPLRLVVCACYRLSVSDARNCCIKFGSCCHLVK; Penaeidin-1; listed as Penaeus vannamei)","Gram+ & Gram−, Fungi"
13,"Histatin 1: peptide, source Crab eating macaque (DSHEERHHGRHGHHKYGRKFHEKHHSHRGYRSNYLYDN; Histatin 1; listed as Macaca fascicularis)","Gram+ & Gram−, Fungi"
14,"Gaegurin-1: peptide, source Wrinkled frog (SLFSLIKAGAKFLGKNLLKQGACYAACKASKQC; Gaegurin-1; listed as Rana rugosa)","Gram+ & Gram−, Fungi"
15,"SEQ ID No. 38: synthetic antifungal peptide, Table 1 (YFKLRF)",Fungi
16,"Hexapeptide: peptide, source Bovine (RRWQWR; hexapeptide; listed as Bos taurus)","Gram+ & Gram−, Virus, Fungi,"
17,"BMAP-27: peptide, source Bovine (GRFKRFRKKFKKLFKKLSPVIPLLHLG; BMAP-27; listed as Bos taurus)","Gram+ & Gram−, Fungi"
18,"Termicin: peptide, source Pseudacanthotermes spiniger (ACNFQSCWATCQAQHSIYFRRAFCDRSQCKCVFVRG; Pseudacanthotermes spiniger; Termicin)","Gram+, Fungi"
19,"SEQ ID No. 195: synthetic antifungal peptide, Table 1 (WCQQKGQPCW; listed as Fusarium graminearum)",Fungi

# Same assay, conditions: classes of organisms/cells the peptide is active against; cited from earlier work
row,Substance,Activity
1,"Opistoporin 1: peptide, source African yellow leg scorpion (GKVWDWIKSTAKKLWNSEPVKELKNTALNAAKNLVAEKIGATPS; Opistoporin 1; listed as Opistophthalmus carinatus)","Gram+ & Gram−, Fungi,; also recorded: Mammalian cells"
